What was measured:
HUVEC = assay: Antiangiogenic activity in HUVEC assessed as inhibition of VEGF-induced capillary tube formation incubated for 6 hrs by capillary tube formation assay; format: functional, cell-based; settings: Homo sapiens
Hepa1c1c7 = assay: Activation of QR in mouse Hepa1c1c7 cells assessed as increase in QR activity at 20 uM incubated for 24 hrs by NADPH-dependent menadiol-mediated reduction of MTT based assay relative to control; format: cell-based; settings: filed as activator

Compound | IC50 (HUVEC) | fold change (FC) (Hepa1c1c7)
CCN(CC)CCNC(=O)c1c(C)[nH]c(/C=C2\C(=O)Nc3ccc(F)cc32)c1C [SUNITINIB] | 2.1 µM | 
CC(C)C[C@H]1NC(=O)[C@@H]2CCCN2C(=O)[C@H]([C@@H](O)c2ccccc2)NC(=O)CNC(=O)[C@H](C(C)C)NC(=O)[C@H]2NC(=O)[C@@H](NC(=O)/C=C/c3ccccc3[C@H]3O[C@@H]3C)[C@@H](C)OC(=O)[C@@H](CC(N)=O)NC(=O)[C@H](NC(=O)[C@H](O)NC1=O)[C@@H](O)c1ccc(O)c(c1)Oc1ccc2cc1 | 8.9 µM | 1.8

Reference: ChEMBL document CHEMBL5120792, “Nyuzenamide C, an Antiangiogenic Epoxy Cinnamic Acid-Containing Bicyclic Peptide from a Riverine Streptomyces sp” (J Nat Prod, 2022)
